# Values joined by “and” are separate entries in the source; they are usually repeats but may differ in a detail not shown here. Equal values may be shown once. Marks after values point to notes of the source that are not given here.
# Assays:
# [1] = test system: male rats with cytopenia; experiment: Hemostimulating activity: general blood analysis of rats with cyclophosphane cytopenia; assay type: in vivo; conditions: for hemostimulating effect (in words): rats with cyclophosphane cytopenia, summary of Tables 5-7; for ESR / Erythrocytes / Leukocytes / Lymphoctes / Reticulocytes / Segmented neutrophils / Thrombocytes / Lymphocytes: rats, acetylcysteine 9.5, lithium carbonate 3, aC-Li 10, Cu-aC-Li:aC-Li 10 mg/kg
# Experimental: The study was carried out on random-bred male white rats weighing 140-160 g, which were given a single subcutaneous injection of cyclophosphane in a dose of 100 mg/kg in physiological saline.
# No. 3—animals which had received an injection of cyclophosphane and to which Cu-aC-Li:aC-Li in physiological saline was then administered in a dose of 10 mg/kg as a therapeutic means (amount of coordination compound 7.8×10^−8 M/kg);
# No. 4—animals which had received an injection of cyclophosphane and to which aC-Li in physiological saline was then administered in a dose of 10 mg/kg as a therapeutic means;
# No. 6—animals which had received an injection of cyclophosphane and to which acetylcysteine in physiological saline was then administered in a dose of 9.5 mg/kg as a therapeutic means (the amount of acetylcysteine was calculated on the basis of the proportion by weight of acetylcysteine (˜0.95) in 10 mg of […], which corresponds to 9.5 mg of the hydrogenated form of acetylcysteine).
# The test preparations were administered on the third day after the administration of cyclophosphane.
# Blood for hematological investigations was taken from the caudal vein 3, 7 and 14 days after administration of CP. At the end of each series (3, 7 and 14 days), the experimental animals were euthanized by an overdose of ether and blood was obtained from the caudal vein and bone marrow from the femur.
# This study assessed the cellularity of the blood (the number of erythrocytes, thrombocytes, leukocytes, lymphocytes and neutrophils, and also the ESR) and bone marrow on 7-day administration of the test compounds to hemodepressed animals.
# [2] = test system: mice with hyperglycemia caused by glucose; experiment: Glucose loading test, blood sugar level; assay type: in vivo
# Experimental: the glucose loading test (reduction in the sugar content in animals with hyperglycemia, caused by administration of glucose when fasting); Blood was obtained after 1 h by caudal vein puncture and the serum glucose level was determined by the ortho-toluidine method. Experiments to study the effect of the test substances on the blood glucose level were carried out on white mice weighing 17-18 g. The animals were deprived of food from the evening prior to the experiment. […] Immediately after injecting the glucose, the experimental animals were injected subcutaneously with a reference preparation (insulin in a dose of 0.3 units/kg). […] The blood glucose level was determined over a period of 4 hours with intervals of 1 hour.
# [3] = test system: white rats with experimental diabetes; experiment: Alloxan diabetes model; assay type: in vivo; conditions: for Cholesterol / Glucose / Total lipids / Triglycerides / β-lipoproteins: blood serum; for Body weight / Daily water consumption / Percent living: intragastrically once daily
# Experimental: the alloxan diabetes model (reduction in the sugar content in the conditions of experimental chronic insulin insufficiency).
# The alloxan diabetes model was used in another series of experiments. Alloxan diabetes was induced by a single subcutaneous injection of alloxan hydrate (Chemapol, Czech Republic) in a dose of 100 mg/kg in rats weighing 180-200 g which had fasted for 24 hours. The following groups of animals were studied: intact rats, untreated rats with diabetes, and animals with diabetes which were given thioctic acid daily for 1 month in a dose of 100 mg/kg, and thioctic acid in combination with the coordination compound in a dose of 10 mg/kg intragastrically once daily. Administration of the preparations commenced after 7 days, when the blood glucose level had roughly doubled as compared with the control. Each group contained 20 animals of both sexes. The general condition of the animals, the demand for food and water, the body weight, and the blood serum levels of glucose, total lipids, triglycerides, lipoproteins and cholesterol were recorded in the course of the experiment. […]
# [4] = test system: A431 line human epidermoid carcinoma cells; experiment: Proliferative activity and death of A431 cells (cell count, propidium iodide flow cytofluorimetry); assay type: cell-based; conditions: for Proportion of dead cells / Total cells: A431, EGF 200 ng/ml
# Experimental: The number of living and dead cells in a culture was determined after 24 and 48 hours.
# A431 line human epidermoid carcinoma cells, obtained from the All-Russian Cell Culture Collection (Russian Academy of Sciences Institute of Cytology, St. Petersburg).
# Cells are cultured in a CO2 incubator (New Brunswick Scientific) at +37° C. and with a CO2 content of 5%. Cells are grown in these conditions to a monolayer culture and are exposed to the action of the test compounds.
# The DMEM medium (OOO PanEko, Moscow) with the addition of gentamicin K (80 mg/l), L-glutamine (300 mg/l) and fetal serum (PAA, Austria) to a final concentration of 10%, is used for culturing cells. Cells are transferred to a medium with a reduced serum content of 0.5% 24 hours before commencing an experiment.
# The cells were then suspended by pipetting with an automatic pipette and were combined with the previously collected medium. Samples were centrifuged at room temperature for 5 min at 400 g, the supernatant was removed and the deposit was resuspended in pH 7.4 PBS phosphate-salt buffer.
# Propidium iodide was added to a suspension of cells to a concentration of 50 μg/ml 5-10 min before measuring in a Bruker ACR 1000 flow cytofluorimeter. This stain is able to penetrate through a damaged cell membrane, and stained cells are dead.
# [5] = day 3 after cyclophosphane 100 mg/kg
# [6] = day 7 after cyclophosphane 100 mg/kg
# [7] = day 14 after cyclophosphane 100 mg/kg
# [8] = Table 2, age of culture 24 hours, cysteine […], C—Pd […], C—Pd:C […]
# [9] = Table 2, age of culture 48 hours, cysteine […], C—Pd […], C—Pd:C […]
compound,measurement,setting,value
"O=C([O-])[O-].[Li+].[Li+] [Li2HCO3, lithium carbonate]",hemostimulating effect (in words),[1],positive trends
same,ESR,[1]; [5],2.4 ± 0.42 mm/h
same,Erythrocytes,[1]; [5],3.7 ± 0.21 10^12/l
same,Leukocytes,[1]; [5],3.75 ± 0.46* 10^9/l
same,Lymphoctes,[1]; [5],62 ± 3.8 %
same,Reticulocytes,[1]; [5],0.118 ± 0.01 %
same,Segmented neutrophils,[1]; [5],19.7 ± 3.4 %
same,Thrombocytes,[1]; [5],256 ± 45.3 10^9/l
same,ESR,[1]; [6],2.0 ± 0.36 mm/h and 3.2 ± 0.80 mm/h
same,Erythrocytes,[1]; [6],3.6 ± 0.29 10^12/l and 3.2 ± 0.18 10^12/l
same,Leukocytes,[1]; [6],3.22 ± 0.11* 10^9/l and 4.8 ± 0.18** 10^9/l
same,Reticulocytes,[1]; [6],1.1 ± 0.1% and 1.2 ± 0.2%
same,Segmented neutrophils,[1]; [6],33 ± 1.7 % and 50.4 ± 0.6 %
same,Thrombocytes,[1]; [6],119 ± 12.0** 10^3/l and 164 ± 10.0** 10^3/l
same,ESR,[1]; [7],2.4 ± 0.65 mm/h
same,Erythrocytes,[1]; [7],4.9 ± 0.27 10^12/l
same,Leukocytes,[1]; [7],5.9 ± 0.26** 10^9/l
same,Lymphocytes,[1]; [7],69.3 ± 0.9%
same,Reticulocytes,[1]; [7],1.4 ± 0.3%
same,Segmented neutrophils,[1]; [7],14.9 ± 2.6 %
same,Thrombocytes,[1]; [7],401 ± 59.9 10^3/l
"O=C(O)CCCCC1CCSS1 (centres unmarked) [Thioctic acid, thioctic acid]",Blood sugar level,"[2]; 5.5 mg/kg intramuscularly, 1 hour",4.3 ± 0.2 mmol/L
same,Blood sugar level,"[2]; 5.5 mg/kg intramuscularly, 2 hours",4.0 ± 0.2 mmol/L
same,Blood sugar level,"[2]; 5.5 mg/kg intramuscularly, 3 hours",4.4 ± 0.3 mmol/L
same,Blood sugar level,"[2]; 5.5 mg/kg intramuscularly, 4 hours",4.1 ± 0.1 mmol/L
same,Blood sugar level,"[2]; 11 mg/kg intramuscularly, 1 hour",4.5 ± 0.2 mmol/L
same,Blood sugar level,"[2]; 11 mg/kg intramuscularly, 2 hours",4.2 ± 0.2 mmol/L
same,Blood sugar level,"[2]; 11 mg/kg intramuscularly, 3 hours",4.2 ± 0.3 mmol/L
same,Blood sugar level,"[2]; 11 mg/kg intramuscularly, 4 hours",4.2 ± 0.1 mmol/L
same,Blood sugar level,"[2]; 100 mg/kg intramuscularly, 1 hour",3.0 ± 0.3 mmol/L
same,Blood sugar level,"[2]; 100 mg/kg intramuscularly, 2 hours",2.8 ± 0.1 mmol/L
same,Blood sugar level,"[2]; 100 mg/kg intramuscularly, 3 hours",2.5 ± 0.1 mmol/L
same,Blood sugar level,"[2]; 100 mg/kg intramuscularly, 4 hours",2.4 ± 0.3 mmol/L
same,Blood sugar level,"[2]; 200 mg/kg intramuscularly, 1 hour",2.7 ± 0.2 mmol/L
same,Blood sugar level,"[2]; 200 mg/kg intramuscularly, 2 hours",2.6 ± 0.3 mmol/L
same,Blood sugar level,"[2]; 200 mg/kg intramuscularly, 3 hours",2.3 ± 0.2 mmol/L
same,Blood sugar level,"[2]; 200 mg/kg intramuscularly, 4 hours",2.1 ± 0.2 mmol/L
same,hypoglycemizing effect (in words),"[2]; doses of 5.5 and 11 mg/kg, without the coordination compound",did not exhibit a hypoglycemizing effect
same,Cholesterol,[3]; 14 days,2.4 ± 0.2 mmol/L
same,Glucose,[3]; 14 days,5.2 ± 0.2 mmol/L
same,Total lipids,[3]; 14 days,10.4 ± 0.5 g/L
same,Triglycerides,[3]; 14 days,2.3 ± 0.2 mmol/L
same,β-lipoproteins,[3]; 14 days,2.1 ± 0.2 g/L
same,Body weight,[3]; 14 days,180 ± 10 g
same,Daily water consumption,[3]; 14 days,25 ± 5
same,Percent living,[3]; 14 days,100%
same,Cholesterol,[3]; 20 days,1.4 ± 0.2 mmol/L
same,Glucose,[3]; 20 days,4.8 ± 0.1 mmol/L
same,Total lipids,[3]; 20 days,10.2 ± 0.3 g/L
same,Triglycerides,[3]; 20 days,1.5 ± 0.2 mmol/L
same,β-lipoproteins,[3]; 20 days,2.1 ± 0.3 g/L
same,Body weight,[3]; 20 days,185 ± 10 g
same,Daily water consumption,[3]; 20 days,22 ± 5
same,Percent living,[3]; 20 days,100%
same,Cholesterol,[3]; 30 days,1.4 ± 0.1 mmol/L
same,Glucose,[3]; 30 days,4.6 ± 0.2 mmol/L
same,Total lipids,[3]; 30 days,9.5 ± 0.2 g/L
same,Triglycerides,[3]; 30 days,1.4 ± 0.2 mmol/L
same,β-lipoproteins,[3]; 30 days,2.1 ± 0.3 g/L
same,Body weight,[3]; 30 days,195 ± 10 g
same,Daily water consumption,[3]; 30 days,20 ± 3
same,Percent living,[3]; 30 days,100%
"CC(=O)N[C@@H](CS)C(=O)[O-].[Li+] [aC—Li, lithium salt of acetylcysteine]",hemostimulating effect (in words),[1],positive trends
same,ESR,[1]; [5],3.3 ± 0.80 mm/h
same,Erythrocytes,[1]; [5],4.0 ± 0.23 10^12/l
same,Leukocytes,[1]; [5],4.38 ± 0.31* 10^9/l
same,Lymphoctes,[1]; [5],45 ± 1.6 %
same,Reticulocytes,[1]; [5],0.1 ± 0.1 %
same,Segmented neutrophils,[1]; [5],42 ± 1.6 %
same,Thrombocytes,[1]; [5],387 ± 17.4 10^9/l
same,ESR,[1]; [7],2.7 ± 0.49 mm/h
same,Erythrocytes,[1]; [7],5.2 ± 0.26 10^12/l
same,Leukocytes,[1]; [7],5.6 ± 0.22** 10^9/l
same,Lymphocytes,[1]; [7],72.5 ± 1.4%
same,Reticulocytes,[1]; [7],1.3 ± 0.3%
same,Segmented neutrophils,[1]; [7],20.3 ± 2.4 %
same,Thrombocytes,[1]; [7],390 ± 38.3 10^3/l
"CC(=O)N[C@@H](CS)C(=O)O [acetyl cysteine, acetylcysteine]",hemostimulating effect (in words),[1],positive trends
same,ESR,[1]; [5],2.2 ± 0.30 mm/h
same,Erythrocytes,[1]; [5],3.0 ± 0.29 10^12/l
same,Leukocytes,[1]; [5],3.26 ± 0.31* 10^9/l
same,Lymphoctes,[1]; [5],68 ± 2.8 %
same,Reticulocytes,[1]; [5],0.09 ± 0.006 %
same,Segmented neutrophils,[1]; [5],17.6 ± 2.1 %
same,Thrombocytes,[1]; [5],220 ± 45.3 10^9/l
same,ESR,[1]; [6],1.9 ± 0.39 mm/h
same,Erythrocytes,[1]; [6],3.1 ± 0.33 10^12/l
same,Leukocytes,[1]; [6],3.47 ± 0.08* 10^9/l
same,Lymphocytes,[1]; [6],51.5 ± 1.3 %
same,Segmented neutrophils,[1]; [6],30 ± 1.8 %
same,Thrombocytes,[1]; [6],124 ± 11 10^9/L
same,ESR,[1]; [7],2.1 ± 0.73 mm/h
same,Erythrocytes,[1]; [7],4.7 ± 0.21 10^12/l
same,Leukocytes,[1]; [7],5.7 ± 0.22** 10^9/l
same,Lymphocytes,[1]; [7],72.1 ± 1.6%
same,Reticulocytes,[1]; [7],1.1 ± 0.4%
same,Segmented neutrophils,[1]; [7],13.3 ± 1.9 %
Epidermal growth factor: physiological high-affinity ligand of the EGF receptor,Proportion of dead cells,[4]; [8],19%
same,Total cells,[4]; [8],47300 mL⁻¹
same,Proportion of dead cells,[4]; [9],23%
same,Total cells,[4]; [9],68800 mL⁻¹
same,Proportion of dead cells,"[4]; Table 3, 24 hours",22%
same,Total cells,"[4]; Table 3, 24 hours",52000 mL⁻¹
same,Proportion of dead cells,"[4]; Table 3, 48 hours",29%
same,Total cells,"[4]; Table 3, 48 hours",71700 mL⁻¹
same,effect on the proliferative activity of A431 cells (in words),[4]; summary of Table 2,maximum stimulating effect
Insulin: reference preparation,Blood sugar level,"[2]; insulin 0.3 units/kg subcutaneously, 1 hour",1.2 ± 0.1 mmol/L
same,Blood sugar level,"[2]; insulin 0.3 units/kg subcutaneously, 2 hours",1.4 ± 0.1 mmol/L
same,Blood sugar level,"[2]; insulin 0.3 units/kg subcutaneously, 3 hours",1.6 ± 0.2 mmol/L
same,Blood sugar level,"[2]; insulin 0.3 units/kg subcutaneously, 4 hours",2.0 ± 0.1 mmol/L

# — patent US8575382B2, “Low molecular weight pharmacological activity modulators” (“Ivy Pharm” LLC, priority 2009, dated 2013)
